“Also recorded” adds a separate entry of the source.
Tests used:
rCYP3A4 = molecular target: T1, rCYP3A4 (Homo sapiens, UniProt P08684); assay: incubation of pamiparib with recombinant CYP3A4; format: in vitro ADME; conditions: 1 μM pamiparib, 50 pmol/mL, 90 minutes
T1 construct: purchased Corning (Woburn, New York)
Procedure: (§1) Metabolic stability in human liver microsomes (HLMs) and cytochrome P450 (CYP450) phenotyping assays were conducted in 3D BioOptima (Suzhou, China) using validated methodology, [13] to determine the intrinsic clearance and enzymes responsible for metabolism of pamiparib. HLMs for microsome stability was from BD Biosciences (Woburn, New York). For phenotyping, HLMs and recombinant P450 (rCYP) were from Corning (Woburn, New York). Pamiparib (1 μM) was incubated with pooled HLM (0.5 mg/mL), NADPH (1 mM), and MgCl2 (3 mM) terminated at 0, 5, 15, 30, 60, and 90 minutes. The intrinsic clearance was calculated as 0.693/(t1/2 × HLM concentration), where t1/2 is the half‐life of pamiparib determined in HLMs. For phenotyping in HLMs, pamiparib (1 μM) was incubated in the absence or presence of isoform‐selective inhibitors: 0.2 μM α‐naphthoflavone for CYP1A2, 2 μM clopidogrel for CYP2B6, 16 μM montelukast for CYP2C8, 10 μM sulfaphenazole for CYP2C9, 30 μM nootkatone for CYP2C19, 2 μM quinidine for CYP2D6, and 1 μM ketoconazole for CYP3A. The following isoform‐selective probe substrates served as positive controls: 40 μM phenacetin for CYP1A2, 100 μM bupropion for CYP2B6, 2 μM amodiaquine for CYP2C8, 5 μM diclofenac for CYP2C9, 40 μM S‐mephenytoin for CYP2C19, 5 μM dextromethorphan for CYP2D6, and 2 μM midazolam for CYP3A4. […] Pamiparib, M1, and M2 were analyzed by LC‐MS/MS.

rCYP2D6 = molecular target: T2, rCYP2D6 (Homo sapiens, UniProt P10635); assay: incubation of pamiparib with recombinant CYP2D6; format: in vitro ADME; conditions: 1 μM pamiparib, 50 pmol/mL, 90 minutes
T2 construct: purchased Corning (Woburn, New York)
Procedure: as §1

[1] = test system: rCYP1A2, rCYP2B6, rCYP2C8, rCYP2C9, rCYP2C19, rCYP2D6, rCYP3A4; assay: incubation of pamiparib with recombinant P450 isoform panel; format: in vitro ADME; conditions: 1 μM pamiparib, 50 pmol/mL, 90 minutes
Procedure: as §1

[2] = metabolite profiling in pooled urine (radioprofiling, LC‐MS); format: in vivo, human; conditions: pooled urine 0‐96 hours, mean
Procedure: (§2) Total radioactivity concentrations of [^14C]‐pamiparib in whole blood, plasma, urine, and feces were determined by liquid scintillation counting (LSC). Radioactivity in each sample was measured for 5 minutes using a Packard Tri‐Carb liquid scintillation counter model 2100TR, 2900TR, or 3100TR (Canberra Packard, Pangbourne, Berks, Australia) with the facilities for computing quench‐corrected disintegrations per minute. Metabolite identification in plasma, urine, and feces was conducted by LC‐MS. Quantitation of the metabolites present in plasma, urine, and feces was based on the profiles of radioactivity. The limit of quantitation for radioactivity in plasma, urine, and feces was set at 1% of each chromatographic analysis (run) and 10 counts per minute (cpm) peak height; therefore, radioactive peaks that were <1% of the total run or <10 cpm peak height were reported as not detected. In addition, pamiparib and standards were reported, regardless of the percentage of run or peak height.
Each aliquot of urine (about 1 mL, weighed) was added directly to liquid scintillant prior to LSC. For metabolite profiling, urine samples collected 0‐4, 4‐8, 8‐12, 12‐24, 24‐48, 48‐72, and 72‐96 hours postdose were pooled by individual patient to generate 0‐ to 96‐hour pooled samples including 0.2% of each sample by weight. The radioactivity in each pooled sample was determined by LSC. The total amount of urine collected was factored into the recovery calculation. […] Pooled urine samples were analyzed by LC‐MS, with eluent fractions collected at 10‐second intervals into 96‐well plates containing solid scintillant. Radioactivity in each well was determined using TopCount analysis, and radiochemical profiles were generated based on radioactivity counts.
(§3) Metabolic profiling was performed on plasma, urine, and feces samples using LC‐MS. Shimadzu/Nexera LC‐30AD pumps and Shimadzu/Prominence DGU‐20A5R degasser were used with Shimadzu/Prominence controller CBM‐20A. The high‐pressure liquid chromatograph (HPLC) was equipped with an autoinjector (Shimadzu/Nexera SIL‐30ACMP) set at 10°C and a fraction collector (Leap Technologies PAL HTC‐xt) set at 15°C. Thermo Fisher Scientific Q Exactive was the mass spectrometer system.

[3] = metabolite profiling in pooled feces (radioprofiling, LC‐MS); format: in vivo, human; conditions: pooled feces 0‐120 hours, mean
Procedure: as §2
Portions of fecal homogenates (about 200‐500 mg) were subjected to combustion analysis prior to LSC. For metabolite profiling, feces samples collected 0‐24, 24‐48, 48‐72, 72‐96, and 96‐120 hours postdose were pooled by individual patient to generate 0‐ to 120‐hour pooled samples including 0.5% of each sample by weight. Feces were pooled per patient (if required) according to the appropriate 24‐hour collection period. The samples were homogenized in deionized water, avoiding excessive dilution (data on file). The radioactivity in each pooled sample was determined by LSC. The total amount of feces collected was factored into the recovery calculation. Approximately 1.6 to 2.7 g of each pooled feces sample was extracted twice with 6 mL of 0.1% formic acid in ACN. […] The combined supernatants were evaporated to dryness under nitrogen and reconstituted in 300 μL of MeOH. […] The reconstituted samples were analyzed by LC‐MS, with eluent fractions collected, and radiochemical profiles were generated based on radioactivity counts. […]

[4] = stability of metabolite M2; format: physicochemical; conditions: dehydrates in the LC‐MS source or under other conditions
[5] = metabolite profiling in plasma (radioprofiling, LC‐MS); format: in vivo, human; conditions: plasma
Procedure: as §2
For metabolite profiling in plasma, ≈1.9 to 2.8 g of each plasma sample collected 0.5, 1, 2, 6, 12, and 24 hours postdose was extracted twice with 6 mL of 0.1% formic acid in acetonitrile (ACN). Duplicate aliquots were analyzed by LSC to determine extraction recoveries, which ranged from 77.4% to 98.5%. The combined supernatants were evaporated to dryness under nitrogen and reconstituted in 2:1 reverse osmosis water:methanol (MeOH). Duplicate aliquots were analyzed by LSC to determine reconstitution recoveries, which ranged from 89.3% to 115%. The reconstituted samples were analyzed by LC‐MS, with eluent fractions collected at 10‐second intervals into 96‐well plates containing solid scintillant. Radioactivity in each well was determined using TopCount analysis, and radiochemical profiles were generated based on radioactivity counts.
as §3

rCYP2C8 = molecular target: T3, rCYP2C8 (Homo sapiens, UniProt P10632); assay: incubation of pamiparib with recombinant CYP2C8; format: in vitro ADME; conditions: 1 μM pamiparib, 50 pmol/mL, 90 minutes
T3 construct: purchased Corning (Woburn, New York)
T3 sequence (P10632 1-490): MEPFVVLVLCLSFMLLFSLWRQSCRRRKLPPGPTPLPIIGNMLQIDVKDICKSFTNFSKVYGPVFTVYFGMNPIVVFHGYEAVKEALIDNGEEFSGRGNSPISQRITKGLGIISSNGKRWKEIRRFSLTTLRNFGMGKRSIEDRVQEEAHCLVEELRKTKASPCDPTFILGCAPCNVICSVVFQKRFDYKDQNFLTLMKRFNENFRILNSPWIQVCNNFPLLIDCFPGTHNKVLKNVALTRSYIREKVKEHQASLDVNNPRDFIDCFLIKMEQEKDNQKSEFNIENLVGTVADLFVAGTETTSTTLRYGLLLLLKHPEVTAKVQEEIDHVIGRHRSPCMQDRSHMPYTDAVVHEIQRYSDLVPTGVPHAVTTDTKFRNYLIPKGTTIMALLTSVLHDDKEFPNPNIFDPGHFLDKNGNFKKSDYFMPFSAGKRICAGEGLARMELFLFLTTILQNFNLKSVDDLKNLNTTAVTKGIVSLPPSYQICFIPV
Procedure: as §1

T1 sequence (P08684 whole entry): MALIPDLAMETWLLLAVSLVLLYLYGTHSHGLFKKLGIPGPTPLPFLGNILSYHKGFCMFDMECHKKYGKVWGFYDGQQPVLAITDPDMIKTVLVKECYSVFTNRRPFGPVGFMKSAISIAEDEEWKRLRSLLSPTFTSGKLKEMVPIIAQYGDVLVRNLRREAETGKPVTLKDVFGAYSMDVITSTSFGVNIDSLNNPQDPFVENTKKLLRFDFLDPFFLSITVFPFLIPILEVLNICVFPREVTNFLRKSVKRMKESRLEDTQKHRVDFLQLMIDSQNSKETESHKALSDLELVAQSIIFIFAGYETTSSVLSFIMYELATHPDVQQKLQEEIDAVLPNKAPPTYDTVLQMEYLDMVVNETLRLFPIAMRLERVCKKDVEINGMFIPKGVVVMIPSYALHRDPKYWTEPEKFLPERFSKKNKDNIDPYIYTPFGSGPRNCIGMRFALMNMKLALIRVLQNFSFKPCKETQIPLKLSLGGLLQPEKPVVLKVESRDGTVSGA
T2 sequence (P10635 whole entry): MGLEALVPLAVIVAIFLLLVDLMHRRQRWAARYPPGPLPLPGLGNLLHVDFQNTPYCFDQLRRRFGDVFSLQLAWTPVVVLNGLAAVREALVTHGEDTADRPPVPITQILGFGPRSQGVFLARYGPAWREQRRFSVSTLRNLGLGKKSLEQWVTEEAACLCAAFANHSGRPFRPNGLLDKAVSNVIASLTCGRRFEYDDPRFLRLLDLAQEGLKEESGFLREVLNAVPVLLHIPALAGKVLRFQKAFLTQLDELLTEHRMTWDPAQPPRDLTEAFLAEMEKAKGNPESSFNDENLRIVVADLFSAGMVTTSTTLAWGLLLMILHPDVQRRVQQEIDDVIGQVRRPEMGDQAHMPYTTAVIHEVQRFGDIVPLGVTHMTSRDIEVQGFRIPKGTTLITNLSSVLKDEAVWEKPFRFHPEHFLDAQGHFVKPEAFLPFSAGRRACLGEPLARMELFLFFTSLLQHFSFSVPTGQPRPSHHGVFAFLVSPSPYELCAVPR

metabolite formation after incubation of pamiparib with rCYP3A4 (rCYP3A4)	metabolite formation after incubation of pamiparib with rCYP2D6 (rCYP2D6)	metabolite detection across rCYP isoforms [1]	% of Radioactive Dose, Urine [2]	% of Radioactive Dose, Feces [3]	stability of the metabolite [4]	Percent of Total Radioactivity Concentration (AUC0‐24h) ([5]; patient S103) [%]	Percent of Total Radioactivity Concentration (AUC0‐24h) ([5]; patient S104) [%]	metabolite formation after incubation of pamiparib with rCYP2C8 (rCYP2C8)	SMILES
detected; also recorded: generated	detected; also recorded: generated	not detected with other rCYP isoforms	0.53%	–	–	–	–	–	C[C@]12CCC[N+]1([O-])CC1=NNC(=O)c3cc(F)cc4[nH]c2c1c34 (stereo partly drawn) [Metabolite M1]
–	–	–	8.05%	1.3%	–	–	–	–	C[C@]1(CCCO)NCC2=NNC(=O)c3cc(F)cc4[nH]c1c2c34 [Metabolite M10, pamiparib hydrate]
higher levels	higher levels; also recorded: generated	detected in all isoforms except rCYP2C9	not identified	not identified	not stable	2.00	4.38	higher levels; also recorded: generated	C[C@]12CCC(O)N1CC1=NNC(=O)c3cc(F)cc4[nH]c2c1c34 (stereo partly drawn) [Metabolite M2]
